According to the kinase profiling compilation of Christmann-Franck et al. (2016):

How the values were obtained:
Experiment in all cases: KINOMEscan competition binding
Details in all cases: compound 10.0 µM
DCLK1 (human) = DCLK1 (human) (UniProt O15075)
INSR (human) = INSR (human) (UniProt P06213)
CDK14 (human) = CDK14 (human) (UniProt O94921)
TLK2 (human) = TLK2 (human) (UniProt Q86UE8)
CAMK2G (human) = CAMK2G (human) (UniProt Q13555)
CDK8 (human) = CDK8 (human) (UniProt P49336)
HIPK1 (human) = HIPK1 (human) (UniProt Q86Z02)
TNK1 (human) = TNK1 (human) (UniProt Q13470)
TNK1 (human), sequence (Q13470 whole entry, looked up): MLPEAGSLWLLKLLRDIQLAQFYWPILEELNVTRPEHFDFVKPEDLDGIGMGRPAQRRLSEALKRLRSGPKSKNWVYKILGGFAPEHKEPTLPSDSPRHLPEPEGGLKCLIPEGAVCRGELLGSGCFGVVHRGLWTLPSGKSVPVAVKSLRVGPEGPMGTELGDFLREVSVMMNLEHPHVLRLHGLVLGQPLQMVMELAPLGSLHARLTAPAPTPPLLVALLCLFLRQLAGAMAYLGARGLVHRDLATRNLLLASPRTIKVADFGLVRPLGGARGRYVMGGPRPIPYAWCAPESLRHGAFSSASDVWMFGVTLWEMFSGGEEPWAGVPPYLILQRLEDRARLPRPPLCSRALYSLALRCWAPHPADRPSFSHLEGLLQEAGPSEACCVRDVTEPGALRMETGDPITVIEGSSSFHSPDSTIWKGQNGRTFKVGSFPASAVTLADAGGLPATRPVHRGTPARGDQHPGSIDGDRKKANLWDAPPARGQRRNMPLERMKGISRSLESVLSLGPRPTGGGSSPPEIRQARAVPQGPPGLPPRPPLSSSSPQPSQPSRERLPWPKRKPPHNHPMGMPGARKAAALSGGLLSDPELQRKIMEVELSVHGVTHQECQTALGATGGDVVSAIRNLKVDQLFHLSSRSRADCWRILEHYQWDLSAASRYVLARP

MAPK8 (human) = MAPK8 (human) (UniProt P45983)
CDK17 (human) = CDK17 (human) (UniProt Q00537)
CDK9 (human) = CDK9 (human) (UniProt P50750)
AURKA (human) = AURKA (human) (UniProt O14965)
CIT (human) = CIT (human) (UniProt O14578)
CIT (human), sequence (O14578 whole entry, looked up): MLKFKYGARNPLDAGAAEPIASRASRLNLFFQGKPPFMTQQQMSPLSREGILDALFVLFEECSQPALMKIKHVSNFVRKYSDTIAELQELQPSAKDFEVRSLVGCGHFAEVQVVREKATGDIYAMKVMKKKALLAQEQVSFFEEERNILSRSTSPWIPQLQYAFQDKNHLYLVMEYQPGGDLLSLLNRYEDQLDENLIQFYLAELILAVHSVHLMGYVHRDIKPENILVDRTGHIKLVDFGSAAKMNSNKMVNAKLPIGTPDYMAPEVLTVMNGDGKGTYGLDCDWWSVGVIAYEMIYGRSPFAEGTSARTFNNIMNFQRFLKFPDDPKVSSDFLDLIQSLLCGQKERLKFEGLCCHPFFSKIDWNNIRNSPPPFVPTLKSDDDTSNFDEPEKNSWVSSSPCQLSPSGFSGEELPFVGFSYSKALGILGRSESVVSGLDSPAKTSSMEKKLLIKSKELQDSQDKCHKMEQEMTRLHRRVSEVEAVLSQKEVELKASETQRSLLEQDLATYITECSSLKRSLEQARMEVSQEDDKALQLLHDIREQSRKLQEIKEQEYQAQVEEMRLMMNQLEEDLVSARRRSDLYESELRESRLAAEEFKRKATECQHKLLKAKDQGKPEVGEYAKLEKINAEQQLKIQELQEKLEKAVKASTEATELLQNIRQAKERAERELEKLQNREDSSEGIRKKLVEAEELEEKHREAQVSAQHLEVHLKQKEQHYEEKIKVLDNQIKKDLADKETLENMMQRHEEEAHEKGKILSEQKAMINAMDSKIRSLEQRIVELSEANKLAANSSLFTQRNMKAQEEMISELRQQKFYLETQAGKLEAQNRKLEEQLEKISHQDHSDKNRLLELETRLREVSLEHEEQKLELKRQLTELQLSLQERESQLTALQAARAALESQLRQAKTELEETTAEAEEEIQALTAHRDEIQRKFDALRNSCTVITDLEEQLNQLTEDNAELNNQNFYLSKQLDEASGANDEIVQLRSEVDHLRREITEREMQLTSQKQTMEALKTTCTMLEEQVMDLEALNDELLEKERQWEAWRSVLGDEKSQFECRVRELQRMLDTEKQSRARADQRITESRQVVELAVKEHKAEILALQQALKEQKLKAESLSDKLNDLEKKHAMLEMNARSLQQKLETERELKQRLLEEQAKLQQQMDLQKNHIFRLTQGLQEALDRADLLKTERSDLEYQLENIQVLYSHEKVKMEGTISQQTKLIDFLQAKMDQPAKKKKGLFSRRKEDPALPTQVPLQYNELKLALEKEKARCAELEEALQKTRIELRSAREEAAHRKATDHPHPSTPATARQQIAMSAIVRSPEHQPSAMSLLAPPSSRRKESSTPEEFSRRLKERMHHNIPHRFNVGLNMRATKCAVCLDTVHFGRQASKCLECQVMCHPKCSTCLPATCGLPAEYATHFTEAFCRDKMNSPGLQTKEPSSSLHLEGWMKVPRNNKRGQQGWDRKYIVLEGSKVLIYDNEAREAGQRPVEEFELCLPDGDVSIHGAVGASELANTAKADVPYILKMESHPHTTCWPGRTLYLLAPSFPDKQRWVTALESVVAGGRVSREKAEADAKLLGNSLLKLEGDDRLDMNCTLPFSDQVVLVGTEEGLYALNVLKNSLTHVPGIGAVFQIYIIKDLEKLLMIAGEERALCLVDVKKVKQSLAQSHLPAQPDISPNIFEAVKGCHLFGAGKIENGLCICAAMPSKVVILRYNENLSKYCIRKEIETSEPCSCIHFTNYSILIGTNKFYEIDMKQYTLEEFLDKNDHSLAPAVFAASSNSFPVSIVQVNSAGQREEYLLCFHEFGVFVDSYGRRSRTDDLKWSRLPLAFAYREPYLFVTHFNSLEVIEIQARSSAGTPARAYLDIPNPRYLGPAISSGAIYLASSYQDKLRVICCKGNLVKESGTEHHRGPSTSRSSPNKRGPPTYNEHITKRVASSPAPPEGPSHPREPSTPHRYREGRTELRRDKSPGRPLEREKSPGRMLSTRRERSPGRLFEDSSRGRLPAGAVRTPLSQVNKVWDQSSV

TNIK (human) = TNIK (human) (UniProt Q9UKE5)
PRKG2 (human) = PRKG2 (human) (UniProt Q13237)
CAMK1D (human) = CAMK1D (human) (UniProt Q8IU85)
MAP3K3 (human) = MAP3K3 (human) (UniProt Q99759)
NEK1 (human) = NEK1 (human) (UniProt Q96PY6)
STK36 (human) = STK36 (human) (UniProt Q9NRP7)
STK36 (human), sequence (Q9NRP7 whole entry, looked up): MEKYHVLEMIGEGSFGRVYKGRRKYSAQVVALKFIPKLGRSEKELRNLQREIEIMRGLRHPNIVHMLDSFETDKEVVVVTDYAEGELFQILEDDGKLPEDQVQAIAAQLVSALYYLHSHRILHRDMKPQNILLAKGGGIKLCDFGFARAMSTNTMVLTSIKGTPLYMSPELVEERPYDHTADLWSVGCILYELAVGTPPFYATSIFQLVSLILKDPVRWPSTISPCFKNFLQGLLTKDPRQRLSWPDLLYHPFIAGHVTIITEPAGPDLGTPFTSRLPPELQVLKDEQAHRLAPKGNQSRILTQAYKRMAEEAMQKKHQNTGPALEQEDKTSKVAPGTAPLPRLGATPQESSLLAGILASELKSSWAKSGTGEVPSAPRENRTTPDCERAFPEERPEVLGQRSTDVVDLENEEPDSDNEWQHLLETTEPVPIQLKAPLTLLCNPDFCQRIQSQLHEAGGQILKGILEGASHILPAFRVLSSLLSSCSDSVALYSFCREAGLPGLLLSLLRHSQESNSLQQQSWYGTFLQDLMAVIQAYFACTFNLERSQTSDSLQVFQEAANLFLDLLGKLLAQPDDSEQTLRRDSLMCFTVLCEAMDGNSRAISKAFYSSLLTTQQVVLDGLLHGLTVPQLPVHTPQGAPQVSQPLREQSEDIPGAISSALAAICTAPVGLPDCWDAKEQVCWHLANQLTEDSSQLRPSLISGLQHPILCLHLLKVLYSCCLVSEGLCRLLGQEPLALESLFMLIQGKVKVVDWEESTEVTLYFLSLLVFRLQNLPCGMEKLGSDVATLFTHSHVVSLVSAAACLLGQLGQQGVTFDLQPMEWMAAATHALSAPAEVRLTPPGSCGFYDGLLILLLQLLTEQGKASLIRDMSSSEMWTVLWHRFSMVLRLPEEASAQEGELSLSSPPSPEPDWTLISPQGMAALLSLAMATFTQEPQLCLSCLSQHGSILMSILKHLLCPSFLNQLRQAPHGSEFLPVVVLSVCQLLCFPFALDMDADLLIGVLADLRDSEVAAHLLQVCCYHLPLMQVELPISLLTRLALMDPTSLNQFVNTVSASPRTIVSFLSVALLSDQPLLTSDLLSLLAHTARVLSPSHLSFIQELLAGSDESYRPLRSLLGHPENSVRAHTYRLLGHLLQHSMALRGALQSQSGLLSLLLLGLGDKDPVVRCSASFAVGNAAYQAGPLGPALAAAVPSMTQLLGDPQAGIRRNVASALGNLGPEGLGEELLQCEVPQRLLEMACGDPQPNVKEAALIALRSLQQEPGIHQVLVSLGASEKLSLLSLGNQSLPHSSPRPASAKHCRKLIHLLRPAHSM

CLK3 (human) = CLK3 (human) (UniProt P49761)
PAK7 (human) = PAK7 (human) (UniProt Q9P286)
FGFR1 (human) = FGFR1 (human) (UniProt P11362)
PLK4 (human) = PLK4 (human) (UniProt O00444)
CAMK2A (human) = CAMK2A (human) (UniProt Q9UQM7)
STK10 (human) = STK10 (human) (UniProt O94804)
STK17A (human) = STK17A (human) (UniProt Q9UEE5)
PLK1 (human) = PLK1 (human) (UniProt P53350)
PIK3CG (human) = PIK3CG (human) (UniProt P48736)
TSSK1B (human) = TSSK1B (human) (UniProt Q9BXA7)
TSSK1B (human), sequence (Q9BXA7 whole entry, looked up): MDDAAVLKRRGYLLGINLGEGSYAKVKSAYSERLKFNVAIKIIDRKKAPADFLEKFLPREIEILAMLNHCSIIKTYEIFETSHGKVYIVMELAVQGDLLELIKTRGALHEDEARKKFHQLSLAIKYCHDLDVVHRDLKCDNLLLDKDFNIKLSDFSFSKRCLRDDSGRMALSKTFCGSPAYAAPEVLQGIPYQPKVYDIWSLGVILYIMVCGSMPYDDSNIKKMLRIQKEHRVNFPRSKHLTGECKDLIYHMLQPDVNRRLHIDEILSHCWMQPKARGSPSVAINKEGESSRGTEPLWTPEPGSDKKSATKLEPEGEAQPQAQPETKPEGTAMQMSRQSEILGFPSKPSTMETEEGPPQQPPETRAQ

TAOK3 (human) = TAOK3 (human) (UniProt Q9H2K8)
MYO3B (human) = MYO3B (human) (UniProt Q8WXR4)
KIT (human) = KIT (human) (UniProt P10721)
MATK (human) = MATK (human) (UniProt P42679)
RPS6KA3 KD1 (human) = RPS6KA3 KD1 (human) (UniProt P51812)
SBK1 (human) = SBK1 (human) (UniProt Q52WX2)
HIPK3 (human) = HIPK3 (human) (UniProt Q9H422)

DCLK1 (human), sequence (O15075 whole entry, looked up): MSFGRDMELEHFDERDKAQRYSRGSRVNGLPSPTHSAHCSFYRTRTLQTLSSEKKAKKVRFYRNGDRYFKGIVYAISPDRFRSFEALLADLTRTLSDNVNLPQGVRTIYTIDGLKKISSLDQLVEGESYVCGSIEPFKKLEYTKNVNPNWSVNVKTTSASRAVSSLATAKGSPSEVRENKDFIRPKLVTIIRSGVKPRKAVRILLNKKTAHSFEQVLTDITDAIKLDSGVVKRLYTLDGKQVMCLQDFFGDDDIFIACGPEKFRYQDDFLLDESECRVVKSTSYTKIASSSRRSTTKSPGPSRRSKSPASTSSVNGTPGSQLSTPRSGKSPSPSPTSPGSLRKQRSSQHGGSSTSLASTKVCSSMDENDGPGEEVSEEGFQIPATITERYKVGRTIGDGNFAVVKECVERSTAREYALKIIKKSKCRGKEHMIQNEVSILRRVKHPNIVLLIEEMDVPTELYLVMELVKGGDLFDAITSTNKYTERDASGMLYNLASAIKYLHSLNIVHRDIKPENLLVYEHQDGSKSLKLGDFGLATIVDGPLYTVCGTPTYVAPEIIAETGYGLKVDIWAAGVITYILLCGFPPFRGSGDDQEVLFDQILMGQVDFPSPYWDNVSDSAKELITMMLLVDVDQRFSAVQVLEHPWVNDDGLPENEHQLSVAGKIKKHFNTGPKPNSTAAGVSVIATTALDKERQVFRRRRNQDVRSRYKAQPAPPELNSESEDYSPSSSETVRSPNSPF

Structure (SMILES)	kinase still bound, per cent of control (DCLK1 (human)) [%]	kinase still bound, per cent of control (CDK14 (human)) [%]	kinase still bound, per cent of control (TLK2 (human)) [%]	kinase still bound, per cent of control (CAMK2G (human)) [%]	kinase still bound, per cent of control (CDK8 (human)) [%]	kinase still bound, per cent of control (TNK1 (human)) [%]	kinase still bound, per cent of control (MAPK8 (human)) [%]	kinase still bound, per cent of control (CDK17 (human)) [%]	kinase still bound, per cent of control (CDK9 (human)) [%]	kinase still bound, per cent of control (AURKA (human)) [%]	kinase still bound, per cent of control (CIT (human)) [%]	kinase still bound, per cent of control (TNIK (human)) [%]	kinase still bound, per cent of control (PRKG2 (human)) [%]	kinase still bound, per cent of control (CAMK1D (human)) [%]	kinase still bound, per cent of control (NEK1 (human)) [%]	kinase still bound, per cent of control (STK36 (human)) [%]	kinase still bound, per cent of control (PAK7 (human)) [%]	kinase still bound, per cent of control (FGFR1 (human)) [%]	kinase still bound, per cent of control (PLK4 (human)) [%]	kinase still bound, per cent of control (CAMK2A (human)) [%]	further results
Cc1n[nH]c2ccc(-c3cncc(OC[C@@H](N)Cc4c[nH]c5ccccc45)c3)cc12	100	9.8	100	5.4	9.6	100	100	25	1.9	100	0.2	3.2	5.7	11	100	100	16	100	100	0.7	kinase still bound, per cent of control (INSR (human)): 100%; kinase still bound, per cent of control (HIPK1 (human)): 0.05%; kinase still bound, per cent of control (MAP3K3 (human)): 29%; kinase still bound, per cent of control (CLK3 (human)): 0%; kinase still bound, per cent of control (STK10 (human)): 100%; kinase still bound, per cent of control (STK17A (human)): 5.4%; kinase still bound, per cent of control (PLK1 (human)): 100%; kinase still bound, per cent of control (PIK3CG (human)): 100%; kinase still bound, per cent of control (TSSK1B (human)): 100%; kinase still bound, per cent of control (TAOK3 (human)): 0.1%; kinase still bound, per cent of control (MYO3B (human)): 100%; kinase still bound, per cent of control (KIT (human)): 100%
CS(=O)(=O)N1CCN(Cc2cc3nc(-c4cccc5[nH]ncc45)nc(N4CCOCC4)c3s2)CC1	100	100	100	100	100	100	100	100	100	100	100	100	100	100	100	100	100	100	100	100	kinase still bound, per cent of control (INSR (human)): 100%; kinase still bound, per cent of control (MATK (human)): 100%; kinase still bound, per cent of control (HIPK1 (human)): 100%; kinase still bound, per cent of control (RPS6KA3 KD1 (human)): 100%; kinase still bound, per cent of control (SBK1 (human)): 100%; kinase still bound, per cent of control (MAP3K3 (human)): 100%; kinase still bound, per cent of control (STK10 (human)): 100%; kinase still bound, per cent of control (STK17A (human)): 100%; kinase still bound, per cent of control (PLK1 (human)): 100%; kinase still bound, per cent of control (TSSK1B (human)): 100%; kinase still bound, per cent of control (TAOK3 (human)): 100%; kinase still bound, per cent of control (MYO3B (human)): 100%; kinase still bound, per cent of control (HIPK3 (human)): 100%; kinase still bound, per cent of control (KIT (human)): 100%
CCN(CC)CCCCNc1ncc2cc(-c3cc(OC)cc(OC)c3)c(NC(=O)NC(C)(C)C)nc2n1	100	100	100	100	100	100	100	100	100	100	100	100	100	100	100	100	100	0.4	100	100	kinase still bound, per cent of control (RPS6KA3 KD1 (human)): 100%; kinase still bound, per cent of control (CLK3 (human)): 100%; kinase still bound, per cent of control (STK10 (human)): 100%; kinase still bound, per cent of control (STK17A (human)): 100%; kinase still bound, per cent of control (PLK1 (human)): 100%; kinase still bound, per cent of control (TSSK1B (human)): 100%; kinase still bound, per cent of control (MYO3B (human)): 100%; kinase still bound, per cent of control (KIT (human)): 100%

Continued, in another order:

kinase still bound, per cent of control (DCLK1 (human)) [%]	kinase still bound, per cent of control (CDK14 (human)) [%]	kinase still bound, per cent of control (TLK2 (human)) [%]	kinase still bound, per cent of control (CAMK2G (human)) [%]	kinase still bound, per cent of control (CDK8 (human)) [%]	kinase still bound, per cent of control (TNK1 (human)) [%]	kinase still bound, per cent of control (MAPK8 (human)) [%]	kinase still bound, per cent of control (CDK17 (human)) [%]	kinase still bound, per cent of control (CDK9 (human)) [%]	kinase still bound, per cent of control (AURKA (human)) [%]	kinase still bound, per cent of control (CIT (human)) [%]	kinase still bound, per cent of control (TNIK (human)) [%]	kinase still bound, per cent of control (PRKG2 (human)) [%]	kinase still bound, per cent of control (CAMK1D (human)) [%]	kinase still bound, per cent of control (NEK1 (human)) [%]	kinase still bound, per cent of control (STK36 (human)) [%]	kinase still bound, per cent of control (PAK7 (human)) [%]	kinase still bound, per cent of control (FGFR1 (human)) [%]	kinase still bound, per cent of control (PLK4 (human)) [%]	kinase still bound, per cent of control (CAMK2A (human)) [%]	Structure (SMILES)	further results
100	100	100	100	100	4	7.3	100	100	2.7	100	19	25	100	100	100	100	11	4.5	100	CNC(=O)c1ccc(Nc2cc(Nc3ccccc3S(=O)(=O)C(C)C)c3cc[nH]c3n2)nc1	kinase still bound, per cent of control (INSR (human)): 0.4%; kinase still bound, per cent of control (HIPK1 (human)): 100%; kinase still bound, per cent of control (RPS6KA3 KD1 (human)): 25%; kinase still bound, per cent of control (MAP3K3 (human)): 4.8%; kinase still bound, per cent of control (CLK3 (human)): 2.8%; kinase still bound, per cent of control (STK10 (human)): 0%; kinase still bound, per cent of control (STK17A (human)): 100%; kinase still bound, per cent of control (PLK1 (human)): 19%; kinase still bound, per cent of control (PIK3CG (human)): 100%; kinase still bound, per cent of control (TSSK1B (human)): 100%; kinase still bound, per cent of control (TAOK3 (human)): 2%; kinase still bound, per cent of control (MYO3B (human)): 100%; kinase still bound, per cent of control (KIT (human)): 20%
100	100	100	100	100	28	100	100	100	100	100	100	100	100	100	100	100	2.2	100	100	C=CC(=O)Nc1ccc(CN(C(=O)Nc2c(Cl)c(OC)cc(OC)c2Cl)c2cc(Nc3ccc(N4CCN(C)CC4)cc3)ncn2)cc1	kinase still bound, per cent of control (INSR (human)): 24%; kinase still bound, per cent of control (HIPK1 (human)): 100%; kinase still bound, per cent of control (RPS6KA3 KD1 (human)): 100%; kinase still bound, per cent of control (MAP3K3 (human)): 5.8%; kinase still bound, per cent of control (CLK3 (human)): 100%; kinase still bound, per cent of control (STK10 (human)): 0.1%; kinase still bound, per cent of control (STK17A (human)): 100%; kinase still bound, per cent of control (PLK1 (human)): 100%; kinase still bound, per cent of control (PIK3CG (human)): 100%; kinase still bound, per cent of control (TSSK1B (human)): 100%; kinase still bound, per cent of control (TAOK3 (human)): 0.9%; kinase still bound, per cent of control (MYO3B (human)): 100%; kinase still bound, per cent of control (KIT (human)): 0.3%
